Data taken from patent US8815809B2, “Cysteine protease inhibitors” (Medivir UK Ltd, priority 2009, dated 2014).

Legend:
Format in all cases: biochemical
human cathepsin L = human cathepsin L (Homo sapiens, UniProt P07711); test: Cathepsin L Ki; conditions: H-D-Val-Leu-Lys-AMC substrate, pH 5.5, read-out: Ki Cat. L
Experimental: The procedure above with the following amendments is used for the determination of Ki for cathepsin L.
The enzyme is commercially available human cathepsin L (for example Calbiochem). The substrate is H-D-Val-Leu-Lys-AMC available from Bahcem. The assay buffer is 100 mM sodium acetate 1 mM EDTA, pH5.5) The DMSO stock (10 mM in 100% DMSO) is diluted to 10% in assay buffer. Enzyme is prepared at 5 nM concentration in assay buffer plus 1 mM dithiothreitol just before use. 2 μL of 10 mM inhibitor made up in 100% DMSO is dispensed into row A. 10 μL of 50 μM substrate (=1/200 dilution of 10 mM stock in DMSO, diluted in assay buffer).
(§1) Potential inhibitors are screened using the above assay with variable concentrations of test compound. Reactions were initiated by addition of enzyme to buffered solutions of substrate and inhibitor. Ki values were calculated according to equation 1.
(§2) [formula] where v0 is the velocity of the reaction, V is the maximal velocity, S is the concentration of substrate with Michaelis constant of KM, and I is the concentration of inhibitor.

cathepsin K = target: T1, cathepsin K (Homo sapiens, UniProt P43235); test: Determination of cathepsin K proteolytic catalytic activity (Ki); conditions: human recombinant enzyme, H-D-Ala-Leu-Lys-AMC substrate; read-out: Ki Cat. K
T1 construct: made in house; host or cells: not fixed: E. coli, Pichia or Baculovirus systems are named as options
T1 sequence (P43235 115-329): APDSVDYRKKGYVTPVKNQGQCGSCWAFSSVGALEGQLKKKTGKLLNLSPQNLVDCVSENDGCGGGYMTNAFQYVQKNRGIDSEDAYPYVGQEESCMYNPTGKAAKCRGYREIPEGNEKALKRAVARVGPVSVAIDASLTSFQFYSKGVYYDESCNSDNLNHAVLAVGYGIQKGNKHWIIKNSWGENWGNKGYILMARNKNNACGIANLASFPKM
Experimental: Convenient assays for cathepsin K are carried out using human recombinant enzyme, such as that described in PDB.
The recombinant cathepsin K can be expressed in a variety of commercially available expression systems including E. coli, Pichia and Baculovirus systems. The purified enzyme is activated by removal of the prosequence by conventional methods.
Standard assay conditions for the determination of kinetic constants used a fluorogenic peptide substrate, typically H-D-Ala-Leu-Lys-AMC, and were determined in either 100 mM Mes/Tris, pH 7.0 containing 1 mM EDTA and 10 mM 2-mercaptoethanol or 100 mM Na phosphate, imM EDTA, 0.1% PEG4000 pH 6.5 or 100 mM Na acetate, pH 5.5 containing 5 mM EDTA and 20 mM cysteine, in each case optionally with […] as stabiliser. The enzyme concentration used was 5 nM. The stock substrate solution was prepared at 10 mM in DMSO. Screens were carried out at a fixed substrate concentration of 60 μM and detailed kinetic studies with doubling dilutions of substrate from 250 μM. The total DMSO concentration in the assay was kept below 3%. All assays were conducted at ambient temperature. Product fluorescence (excitation at 390 nm, emission at 460 nm) was monitored with a Labsystems Fluoroskan Ascent fluorescent plate reader. Product progress curves were generated over 15 minutes following generation of AMC product.
as §1, §2

human cathepsin S = target: T2, human cathepsin S (Homo sapiens, UniProt P25774); test: Cathepsin S Ki determination; conditions: baculovirus-expressed human cathepsin S, boc-Val-Leu-Lys-AMC substrate, pH 6.5; read-out: Ki Cat. S
T2 construct: made in house; host or cells: baculovirus expression system
Experimental: The assay uses baculovirus-expressed human cathepsin S and the boc-Val-Leu-Lys-AMC fluorescent substrate available from Bachem in a 384 well plate format, in which 7 test compounds can be tested in parallel with a positive control comprising a known cathepsin S inhibitor comparator.
280 μL/well of 12.5% DMSO are added to rows B-H of two columns of a 96 deep well polypropylene plate. 70 μL/well of substrate is added to row A. 2×250 μL/well of assay buffer (100 mM Na phosphate, 100 mM NaCl, pH 6.5) is added to row A, mixed, and double diluted down the plate to row H.
100 μL/well of assay buffer is added to columns 2-5 and 7-12 of 4 rows of a 96 well V bottom polypropylene plate. 200 μL/well of assay buffer is added to columns 1 and 6.
The first test compound prepared in DMSO is added to column 1 of the top row, typically at a volume to provide between 10 and 30 times the initially determined rough K1. The rough K, is calculated from a preliminary run in which 10 μL/well of 1 mM boc-VLK-AMC (1/10 dilution of 10 mM stock in DMSO diluted into assay buffer) is dispensed to rows B to H and 20 μl/well to row A of a 96 well Microfluor™ plate. 2 μl of each 10 mM test compound is added to a separate well on row A, columns 1-10. Add 90 μl assay buffer containing 1 mM DTT and 2 nM cathepsin S to each well of rows B-H and 180 μl to row A. Mix row A using a multichannel pipette and double dilute to row G. Mix row H and read in the fluorescent spectrophotometer.
The second test compound is added to column 6 of the top row, the third to column 1 of the second row etc. Add 1 μL of comparator to column 6 of the bottom row. Mix column 1 and double dilute to column 5. Mix column 6 and double dilute to column 10.
Using an 8-channel multistepping pipette set to 5×10 μL, distribute 10 μL/well of substrate to the 384 well assay plate. Distribute the first column of the substrate dilution plate to all columns of the assay plate starting at row A. The tip spacing of the multichannel pipette will correctly skip alternate rows. Distribute the second column to all columns starting at row B.
Using a 12-channel multistepping pipette set to 4×10 μL, distribute 10 μL/well of inhibitor to the 384 well assay plate. Distribute the first row of the inhibitor dilution plate to alternate rows of the assay plate starting at A1. The tip spacing of the multichannel pipette will correctly skip alternate columns. Similarly, distribute the second, third and fourth rows to alternate rows and columns starting at A2, B1 and B2 respectively.
Mix 20 mL assay buffer and 20 μL 1M DTT. Add sufficient cathepsin S to give 2 nM final concentration.
Using the a distributor such as a Multidrop 384, add 30 μL/well to all wells of the assay plate and read in fluorescent spectrophotometer such as an Ascent.
Fluorescent readings, (excitation and emission wavelengths 390 nm and 460 nm respectively, set using bandpass filters) reflecting the extent of enzyme cleavage of the fluorescent substrate, […] the inhibitor, are linear rate fitted for each well.
Fitted rates for all wells for each inhibitor are fitted to the competitive inhibition equation using SigmaPlot 2000 to determine V, Km and Ki values.
as §1, §2

human cathepsin L, sequence (P07711 114-333): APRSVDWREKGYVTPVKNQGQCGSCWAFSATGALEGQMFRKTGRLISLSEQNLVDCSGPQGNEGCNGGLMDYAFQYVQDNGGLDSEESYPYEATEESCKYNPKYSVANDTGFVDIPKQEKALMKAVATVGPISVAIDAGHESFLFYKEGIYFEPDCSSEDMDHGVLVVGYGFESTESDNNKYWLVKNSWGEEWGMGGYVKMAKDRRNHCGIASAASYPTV
T2 sequence (P25774 115-331): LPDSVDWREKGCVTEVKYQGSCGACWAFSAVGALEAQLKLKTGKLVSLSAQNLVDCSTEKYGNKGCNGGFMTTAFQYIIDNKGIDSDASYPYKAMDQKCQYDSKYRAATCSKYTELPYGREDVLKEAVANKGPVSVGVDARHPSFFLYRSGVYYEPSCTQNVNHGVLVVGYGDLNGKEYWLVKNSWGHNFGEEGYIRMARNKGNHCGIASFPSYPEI

Row | Compound | Ki (human cathepsin L) [nM] | Ki (cathepsin K) [nM] | Ki (human cathepsin S) [nM]
1 | Cn1ccc(NC(=O)C(=O)C2(NC(=O)C(CC3CCCC3)NC(=O)OC(C)(C)C)CC(F)C2)n1 (stereo not drawn) [Example 45] | 850 | 1100 | 6
2 | CCOC(=O)NC(CC1(C)CCCC1)C(=O)NC1(C(=O)C(=O)Nc2ccn(C)n2)CC(OC)C1 (stereo not drawn) [Example 70] | 2100 | 1400 | 0.7
3 | CC1(C[C@H](NC(=O)OC(C)(C)C)C(=O)NC2(C(=O)C(=O)NC3CC3)CCC2)CCCC1 [Example 24] | 10000 | 4400 | 7.8
4 | CCOC(=O)N[C@@H](CC1(F)CCCC1)C(=O)NC1(C(=O)C(=O)NCCCN2CCN(C)CC2)CCC1 [Example 63] | 4900 | 1400 | 22
5 | Cn1ccc(NC(=O)C(=O)C2(NC(=O)C(CC3(C)CCC3)NC(=O)OC(C)(C)C)CC(F)C2)n1 (stereo not drawn) [Example 19] | 330 | 150 | 4.7
6 | CC(C)(C)OC(=O)N[C@@H](CC1(F)CCCC1)C(=O)NC1(C(=O)C(=O)NC2CC2)CC(F)C1 (stereo partly drawn) [Example 22] | 25000 | 3800 | 14
7 | Cn1cnc(NC(=O)C(=O)C2(NC(=O)[C@H](CC3(C)CCCC3)NC(=O)OC(C)(C)C)CCC2)c1 [Example 11] | 1100 | 610 | 1
8 | CCOC(=O)NC(CC1(C)CCCC1)C(=O)NC1(C(=O)C(=O)Nc2ccn(C)n2)CC(F)C1 (stereo not drawn) [Example 8] | 3300 | 1200 | 1
9 | CC(C)(C)OC(=O)N[C@@H](CC1(F)CCCC1)C(=O)NC1(C(=O)C(=O)Nc2cc[nH]n2)CCC1 [Example 57, {2-(1-Fluoro-cyclopentyl)-1-[1-(1H-pyrazol-3-ylaminooxalyl)-cyclobutylcarbamoyl]-ethyl}-carbamic acid tert-butyl ester] | 720 | 290 | 0.79
10 | Cc1csc(NC(=O)C(=O)C2(NC(=O)[C@H](CC3(C)CCCC3)NC(=O)OC(C)(C)C)CCC2)n1 [Example 20] | > 200000 | 95000 | 30
11 | [2H]C([2H])([2H])n1ccc(NC(=O)C(=O)C2(NC(=O)C(CC3(F)CCCC3)NC(=O)OC(C)(C)C)CC(F)C2)n1 (stereo not drawn) [Example 50] | 560 | 100 | 0.65
12 | CCOC(=O)NC(CC(C)(C)C)C(=O)NC1(C(=O)C(=O)Nc2ccn(C)n2)CC(F)C1 (stereo not drawn) [Example 4] | 3300 | 430 | 11

Other lines, results leading:

Row | Ki (human cathepsin L) [nM] | Ki (cathepsin K) [nM] | Ki (human cathepsin S) [nM] | Compound
13 | 2400 | 640 | 1.1 | CCOC(=O)NC(CC1(F)CCCC1)C(=O)NC1(C(=O)C(=O)Nc2ccn(C)n2)CC(OC)C1 (stereo not drawn) [Example 68]
14 | 1200 | 410 | 1.8 | CC(C)OC(=O)NC(CC1(F)CCCC1)C(=O)NC1(C(=O)C(=O)Nc2ccn(C)n2)CC(F)C1 (stereo not drawn) [Example 31]
15 | 990 | 440 | 1.8 | CC(CF)OC(=O)NC(CC1(F)CCCC1)C(=O)NC1(C(=O)C(=O)Nc2ccn(C)n2)CCC1 (stereo not drawn) [Example 56, {2-(1-Fluoro-cyclopentyl)-1-[1-(1-methyl-1H-pyrazol-3-ylaminooxalyl)-cyclobutylcarbamoyl]-ethyl}-carbamic acid 2-fluoro-1-methyl-ethyl ester]
16 | 270 | 98 | 0.4 | Cn1ccc(NC(=O)C(=O)C2(NC(=O)[C@H](CC3(F)CCCC3)NC(=O)OC(C)(C)C)CCC2)n1 [Example 52]
17 | 2100 | 340 | 2.2 | Cn1ccc(NC(=O)C(=O)C2(NC(=O)[C@H](CC3(F)CCCC3)NC(=O)OC3COC3)CCC2)n1 [Example 59, {2-(1-Fluoro-cyclopentyl)-1-[1-(1-methyl-1H-pyrazol-3-ylaminooxalyl)-cyclobutylcarbamoyl]-ethyl}-carbamic acid oxetan-3-yl ester]
18 | 4800 | 1100 | 3.6 | COC(=O)N[C@@H](CC1(C)CCCC1)C(=O)N[C@]1(C(=O)C(=O)Nc2ccn(C)n2)C[C@@H](F)C1 [Example 1]
19 | 360 | 170 | 0.55 | Cn1ccc(NC(=O)C(=O)C2(NC(=O)[C@H](CC3(F)CCCC3)NC(=O)OC(C)(C)C)CC(F)(F)C2)n1 [Example 10]
20 | 1100 | 250 | 0.8 | COC1CC(NC(=O)[C@H](CC2(F)CCCC2)NC(=O)OC(C)(C)C)(C(=O)C(=O)Nc2ccn(C)n2)C1 (single isomer, unassigned) [Example 73, {2-(1-Fluoro-cyclopentyl)-1-[3-methoxy-1-(1-methyl-1H-pyrazol-3-ylaminooxalyl)-cyclobutylcarbamoyl]-ethyl}-carbamic acid tert-butyl ester]
21 | 660 | 240 | 0.65 | COC1CC(NC(=O)[C@H](CC2(F)CCCC2)NC(=O)OC(C)(C)C)(C(=O)C(=O)Nc2ccn(C)n2)C1 (stereo partly drawn) [Example 49]
